Values of other authors in patent US11647710B2, “Method for preparation of soybean leaf having high content of isoflavone derivative in dark condition and soybean leaf having high content of isoflavone derivative prepared thereby” (INDUSTRY-ACADEMIC COOPERATION FOUNDATION GYEONGSANG …, priority 2019, dated 2023).

Molecular target: ER-beta (estrogen receptor beta) (Rattus norvegicus, UniProt Q62986)
Details: Endocrinology 1997, 863; cited from earlier work

Chain of ER-beta (estrogen receptor beta) (Q62986 whole entry): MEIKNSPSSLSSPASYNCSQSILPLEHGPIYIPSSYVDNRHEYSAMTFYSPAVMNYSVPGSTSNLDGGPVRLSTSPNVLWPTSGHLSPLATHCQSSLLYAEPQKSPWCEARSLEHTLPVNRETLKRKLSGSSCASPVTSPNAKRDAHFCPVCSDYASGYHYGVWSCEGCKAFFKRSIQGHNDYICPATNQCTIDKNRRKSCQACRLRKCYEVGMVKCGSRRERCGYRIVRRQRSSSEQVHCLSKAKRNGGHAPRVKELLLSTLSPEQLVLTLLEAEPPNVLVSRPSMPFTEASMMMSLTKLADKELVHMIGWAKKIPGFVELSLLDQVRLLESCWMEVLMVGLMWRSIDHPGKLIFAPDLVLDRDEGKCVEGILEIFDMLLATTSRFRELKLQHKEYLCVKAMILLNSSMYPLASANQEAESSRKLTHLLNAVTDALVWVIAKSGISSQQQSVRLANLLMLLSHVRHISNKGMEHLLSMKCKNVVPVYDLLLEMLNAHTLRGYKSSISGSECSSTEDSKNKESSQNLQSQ

Compound: O=c1c(-c2ccc(O)cc2)coc2cc(O)ccc12 [daidzein]
- affinity for ER-beta: high affinity
